Test results from patent US11702404B2, “GLP-1R modulating compounds” (priority 2019, dated 2023).
Where two headings read alike, the source gives them in different places.

Key:
GLP-1R = GLP-1R (Homo sapiens, UniProt P43220); assay: GLP-1R activation: cAMP increase in CHO cells stably expressing GLP-1R; format: cell-based
[1] = Microsomal stability, human liver microsomes (predicted hepatic clearance); conditions: predicted from in vitro microsomal stability data
[2] = cAMP increase, CHO cells stably expressing GLP-1R, 10 point dose response, 30 minutes incubation, read-out: EC50

Sequence of GLP-1R (P43220 24-463): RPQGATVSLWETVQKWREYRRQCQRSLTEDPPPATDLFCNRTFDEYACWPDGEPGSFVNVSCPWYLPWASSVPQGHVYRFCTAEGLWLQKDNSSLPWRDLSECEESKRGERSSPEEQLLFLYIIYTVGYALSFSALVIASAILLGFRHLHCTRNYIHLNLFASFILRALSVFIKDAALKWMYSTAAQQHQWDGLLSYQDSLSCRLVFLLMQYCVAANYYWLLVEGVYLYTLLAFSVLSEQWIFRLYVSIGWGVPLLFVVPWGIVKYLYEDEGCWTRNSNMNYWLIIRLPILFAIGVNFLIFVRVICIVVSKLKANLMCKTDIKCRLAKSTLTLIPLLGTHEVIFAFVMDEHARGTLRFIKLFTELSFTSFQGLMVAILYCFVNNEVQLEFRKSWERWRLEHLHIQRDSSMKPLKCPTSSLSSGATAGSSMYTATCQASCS

Structure (SMILES) | EC50 (GLP-1R; [2]) [nM] | Predicted Hepatic Clearance (Pred. Cl.) [1] [mL/min/kg] | EC50 (GLP-1R; EC50 (nM)) [nM] | EC50 (GLP-1R; read-out: EC50) [nM]
COCCn1c(Cc2ccc(-c3ccc(F)c(OCc4ccc(Cl)cc4F)c3)cc2F)nc2ccc(C(=O)O)cc21 [Example 472, 2-((3′-((4-chloro-2-fluorobenzyl)oxy)-3,4′-difluoro-[1,1′-biphenyl]-4-yl)methyl)-1-(2-methoxyethyl)-1H-benzo[d]imidazole-6-carboxylic acid] | 20.9 | <1.83 | – | –
COC1(Cn2c(Cc3cc(F)c(-c4cccc(OCc5ccc(C#N)cc5F)n4)cc3F)nc3ccc(C(=O)O)cc32)COC1 [Example 636] | 1.27 | 6.5 | – | –
COC1(Cn2c(Cc3cc(F)c(-c4cccc(OCc5ccc(C#N)cc5F)n4)cc3F)nc3ccc(C(=O)O)cc32)CCOC1 (centres unmarked) [Example 627] | 2.19 | 7.83 | – | –
COCCn1c(Cc2ccc(-c3cccc(OCc4ccc(C#N)cc4F)n3)cc2-c2cccc(OC)c2)nc2ccc(C(=O)O)cc21 [Example 188, 2-((5-(6-((4-cyano-2-fluorobenzyl)oxy)pyridin-2-yl)-3′-methoxy-[1,1′-biphenyl]-2-yl)methyl)-1-(2-methoxyethyl)-1H-benzo[d]imidazole-6-carboxylic acid] | 36.9 | 17.5 | – | –
CCOC(=O)c1ccc2nc(Cc3cc(F)c(-c4cccc(OCc5ccc(C#N)cc5F)n4)cc3F)n(CCOC)c2c1 [Example 847, Ethyl 2-(4-(6-((4-cyano-2-fluorobenzyl)oxy)pyridin-2-yl)-2,5-difluorobenzyl)-1-(2-methoxyethyl)-1H-benzo[d]imidazole-6-carboxylate] | 537 | 6 | – | –
N#Cc1ccc(COc2cccc(-c3cc(F)c(Cc4nc5ccc(C(=O)O)cc5n4CC4(n5cncn5)CC4)cc3F)n2)c(F)c1 [Example 274, 1-((1-(1H-1,2,4-triazol-1-yl)cyclopropyl)methyl)-2-(4-(6-((4-cyano-2-fluorobenzyl)oxy)pyridin-2-yl)-2,5-difluorobenzyl)-1H-benzo[d]imidazole-6-carboxylic acid] | 0.23 | 8 | – | –
COCCn1c(Cc2cc(F)c(-c3cccc(OCc4ccc(C#N)cc4F)n3)c(F)c2)nc2ccc(C(=O)O)cc21 [Example 110, 2-(4-(6-((4-cyano-2-fluorobenzyl)oxy)pyridin-2-yl)-3,5-difluorobenzyl)-1-(2-methoxyethyl)-1H-benzo[d]imidazole-6-carboxylic acid] | – | 7 | 21.8 | –
CCn1c(Cn2c(Cc3ccc(-c4cccc(OCc5ccc(C#N)cc5F)n4)cc3F)nc3ccc(C(=O)O)cc32)cnc1C [Example 519, 2-(4-(6-((4-cyano-2-fluorobenzyl)oxy)pyridin-2-yl)-2-fluorobenzyl)-1-((l-ethyl-2-methyl-1H-imidazol-5-yl)methyl)-1H-benzo[d]imidazole-6-carboxylic acid] | 39.3 | 3.5 | – | –
C[C@H](C1CC1)n1c(Cc2ccc(-c3cccc(OCc4ccc(C#N)cc4F)n3)cc2F)nc2ccc(C(=O)O)cc21 [Example 222, (R)-2-(4-(6-((4-cyano-2-fluorobenzyl)oxy)pyridin-2-yl)-2-fluorobenzyl)-1-(1-cyclopropylethyl)-1H-benzo[d]imidazole-6-carboxylic acid] | 6.79 | 5 | – | –
N#CCC1(n2c(Cc3ccc(-c4cccc(OCc5ccc(C#N)cc5F)n4)cc3F)nc3ccc(C(=O)O)cc32)CC1 [Example 376, 2-(4-(6-((4-cyano-2-fluorobenzyl)oxy)pyridin-2-yl)-2-fluorobenzyl)-1-(1-(cyanomethyl)cyclopropyl)-1H-benzo[d]imidazole-6-carboxylic acid] | 1.53 | 3.83 | – | –
COCCn1c(Cc2cc(F)c(-c3cccnc3OCc3ccc(C#N)cc3F)cc2F)nc2ccc(C(=O)O)cc21 [Example 211, 2-(4-(2-((4-cyano-2-fluorobenzyl)oxy)pyridin-3-yl)-2,5-difluorobenzyl)-1-(2-methoxyethyl)-1H-benzo[d]imidazole-carboxylic acid] | 126 | 8.17 | – | –
COc1cc(C#N)ccc1COc1cccc(-c2ccc(Cc3nc4ccc(C(=O)O)cc4n3CC3(CF)CC3)c(F)c2)n1 [Example 367, 2-(4-(6-((4-cyano-2-methoxybenzyl)oxy)pyridin-2-yl)-2-fluorobenzyl)-1-((1-(fluoromethyl)cyclopropyl)methyl)-1H-benzo[d]imidazole-6-carboxylic acid] | 0.86 | 10.8 | – | –
N#CCC1(Cn2c(Cc3ccc(-c4cccc(OCc5ccc(C#N)cc5F)n4)cc3F)nc3c(F)cc(C(=O)O)cc32)CC1 [Example 296, 2-(4-(6-((4-cyano-2-fluorobenzyl)oxy)pyridin-2-yl)-2-fluorobenzyl)-1-((1-(cyanomethyl)cyclopropyl)methyl)-4-fluoro-1H-benzo[d]imidazole-6-carboxylic acid] | 0.08 | 5.33 | – | –
N#Cc1ccc(COc2cccc(-c3ccc(Cc4nc5c(F)cc(C(=O)O)cc5n4CC4(C(F)F)CC4)cc3F)n2)c(F)c1 [Example 288, 2-(4-(6-((4-cyano-2-fluorobenzyl)oxy)pyridin-2-yl)-3-fluorobenzyl)-1-((1-(difluoromethyl)cyclopropyl)methyl)-4-fluoro-1H-benzo[d]imidazole-6-carboxylic acid] | 0.76 | 5.08 | – | –
N#Cc1ccc(COc2cccc(-c3ccc(Cc4nc5ccc(C(=O)O)cc5n4CCCO)c(F)c3)n2)c(F)c1 [Example 392, 2-(4-(6-((4-cyano-2-fluorobenzyl)oxy)pyridin-2-yl)-2-fluorobenzyl)-1-(3-hydroxypropyl)-1H-benzo[d]imidazole-6-carboxylic acid] | 14.5 | 3.17 | – | –
CO[C@@H]1CN(C(C)=O)C[C@H]1n1c(Cc2cc(F)c(-c3cccc(OCc4ccc(C#N)cc4F)n3)cc2F)nc2ccc(C(=O)O)cc21 [Example 920] | – | 4.67 | – | 58.5
N#Cc1ccc(COc2cccc(-c3ccc(Cc4nc5ccc(C(=O)O)cc5n4CC45CCC(CC4)O5)c(F)c3)n2)c(F)c1 [Example 231, 1-(7-oxabicyclo[2.2.1]heptan-1-ylmethyl)-2-(4-(6-((4-cyano-2-fluorobenzyl)oxy)pyridin-2-yl)-2-fluorobenzyl)-1H-benzo[d]imidazole-6-carboxylic acid] | 35.4 | 8.17 | – | –
N#Cc1ccc(COc2cccc(-c3cc(F)c(Cc4nc5ccc(C(=O)O)cc5n4CC45CCN(CC4)C5)cc3F)n2)c(F)c1 [Example 742] | 54.8 | 1.83 | – | –
COCCn1c(Cc2ccc(-c3cccc(OCc4ccc(C#N)cc4F)n3)cc2N)nc2ccc(C(=O)O)cc21 [Example 64, 2-(2-amino-4-(6-((4-cyano-2-fluorobenzyl)oxy)pyridin-2-yl)benzyl)-1-(2-methoxyethyl)-1H-benzo[d]imidazole-6-carboxylic acid] | 67 | 3.5 | – | –
COCCn1c(Cc2cc(F)c(-c3cccc(OCc4ccc(-c5ncccn5)cc4F)n3)cc2F)nc2ccc(C(=O)O)cc21 [Example 911, 2-[[2,5-difluoro-4-[6-[(2-fluoro-4-pyrimidin-2-yl-phenyl)methoxy]-2-pyridyl]phenyl]methyl]-3-(2-methoxyethyl)benzimidazole-5-carboxylic acid] | 55.6 | 1.83 | – | –
COCCn1c(Cc2cc(F)c(-c3cccc(OCc4ccc(F)cc4Cl)n3)cc2F)nc2ccc(C(=O)O)cc21 [Example 818] | 4.3 | 6 | – | –
COc1cc(Cl)ccc1COc1nccc(-c2cc(F)c(Cc3nc4ccc(C(=O)O)cc4n3CC3(CF)CC3)cc2F)n1 [Example 414, 2-(4-(2-((4-chloro-2-methoxybenzyl)oxy)pyrimidin-4-yl)-2,5-difluorobenzyl)-1-((1-(fluoromethyl)cyclopropyl)methyl)-1H-benzo[d]imidazole-6-carboxylic acid] | 0.44 | 12 | – | –
N#Cc1ccc(COc2nccc(-c3cc(F)c(Cc4nc5ccc(C(=O)NS(=O)(=O)C6CC6)cc5n4C[C@@H]4CCO4)cc3F)n2)c(F)c1 [Example 685] | 1.05 | 2.33 | – | –
N#Cc1ccc(COc2cccc(-c3ccc(Cc4nc5ccc(C(=O)O)cc5n4C[C@@H]4CCO4)cc3F)n2)cn1 [Example 656] | 1.52 | 4.67 | – | –
COCCn1c(Cc2cc(F)c(-c3cccc(OCc4ccc(C#N)cc4F)n3)cc2Cl)nc2ccc(C(=O)O)cc21 [Example 304, 2-(2-chloro-4-(6-((4-cyano-2-fluorobenzyl)oxy)pyridin-2-yl)-5-fluorobenzyl)-1-(2-methoxyethyl)-1H-benzo[d]imidazole-6-carboxylic acid] | 0.5 | 5.33 | – | –
N#Cc1ccc(COc2ncc(F)c(-c3ccc(Cc4nc5c(F)cc(C(=O)O)cc5n4C[C@@H]4CCO4)cc3)n2)c(F)c1 [Example 882] | 0.18 | 6.17 | – | –
O=C(O)c1cc(F)c2nc(Cc3cc(F)c(-c4cccc(OCc5ccc(C(F)F)cc5F)n4)cc3F)n(C[C@@H]3CCO3)c2c1 [Example 643] | 0.03 | 5 | – | –
COCCn1c(Cc2cc(F)c(-c3cccc(OCc4ccc(C(F)(F)F)c(F)c4F)n3)cc2F)nc2ccc(C(=O)O)cc21 [Example 872, 2-[[4-[6-[[2,3-difluoro-4-(trifluoromethyl)phenyl]methoxy]-2-pyridyl]-2,5-difluoro-phenyl]methyl]-3-(2-methoxyethyl)benzimidazole-5-carboxylic acid] | 5.09 | 1.83 | – | –
